Test in all cases: NCI-60 cell line screen, 48 h
For experiment [1], the system named is A498 renal.
For experiment [2], the system named is CAKI-1 renal.
Experiment [3] has as its system EKVX NSCLC.
Experiment [4] deals with K-562 leukemia.
Experiment [5] has as its system MOLT-4 leukemia.
Experiment [6] concerns NCI-H522 lung.
Experiment [7] deals with OVCAR-4 ovarian.
In experiment [8] the test system is OVCAR-5 ovarian.
The test system of experiment [9] is SK-OV-3 ovarian.
Experiment [10] deals with TK-10 renal.

Values joined by “and” are separate entries in the source; they are usually repeats but may differ in a detail not shown here. Identical values can stand only once.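 1) Cells in 96-well plates. 2) Compound, 48 h, 5 concentrations. 3) Linear interpolation between surrounding doses. 4) Unreached endpoint = highest concentration. GI50 marks 50% less growth. At the TGI there is no net growth.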

As to `COc1cc2c3c(n(CCCN)c(=O)c2cc1OC)-c1ccc([N+](=O)[O-])cc1C3=O`, the GI50 in experiment [1] was 17.4 µM; in experiment [2], 4.7 µM; in experiment [3] it was 20 µM; in [4] it was 5.57 µM; in experiment [5], 0.434 µM; in experiment [6] it was 0.489 µM. For the same compound, the GI50 is 11.5 µM in experiment [7], 15.9 µM in experiment [8], 12.2 µM in experiment [9] and 20.7 µM in experiment [10]. Besides, the TGI came to 34.1 µM in experiment [1]; 19.4 µM in [2]; 40.7 µM in experiment [3]; 31.3 µM in experiment [4]; 16.2 µM in [5]; 10.8 µM in experiment [6]. The TGI in experiment [7] was 33.7 µM; in experiment [8], 30.7 µM; in experiment [9] it was 28.7 µM; in [10] it was 41.4 µM.

As to `c1ccc(-c2nn3c(c2-c2ccnc4cc(OCCN5CCOCC5)ccc24)CCC3)nc1`, the GI50 in experiment [1] was more than 100 µM; in experiment [2], 45.6 µM; in experiment [3] it was more than 100 µM; in [4] it was 30.3 µM; in [5], 51.8 µM; in [6] it was 44.8 µM. The GI50 in experiment [7] was more than 100 µM; in experiment [8], 72.1 µM; in experiment [9] it was more than 100 µM; in [10] it was more than 100 µM. The TGI in experiment [1], in [2], in [3], in experiment [4], in experiment [5] and in [6] was more than 100 µM in each case. The TGI in [7], in experiment [8], in [9] and in [10] was more than 100 µM throughout.

`COc1ccc(/C=C(/c2ccccc2)[N+](=O)[O-])c(OC)c1`: the GI50 in experiment [1] is 1.55 µM; in [2] it was 1.23 µM; in experiment [3] it was 1.73 µM; in experiment [4], 0.494 µM; in [5] it was 2.14 µM; in [6] it was 1.56 µM. Also, the GI50 was 1.55 µM in experiment [7], 1.92 µM in experiment [8], 3.1 µM in experiment [9] and 2.24 µM in [10]. Moreover, the TGI is 2.99 µM in [1]; 2.64 µM in [2]; 3.98 µM in experiment [3]; 38.2 µM in experiment [4]; 6.77 µM in [5]; 4.02 µM in experiment [6]. Moreover, the TGI in experiment [7] was 2.92 µM; in experiment [8], 3.74 µM; in experiment [9], 9.57 µM; in [10] it was 4.18 µM.

As to `O=[N+]([O-])c1cc[n+]([O-])c2ccccc12`, the GI50 in experiment [1] was 0.176 µM; in experiment [2], 0.307 µM; in [3] it was 1.22 µM; in experiment [4], 0.26 µM; in experiment [5], 1.9 µM; in [6] it was 0.214 µM. Besides, the GI50 was 1.78 µM in experiment [7], 2.42 µM in experiment [8], 1.78 µM in [9] and 0.187 µM in [10]. Also, the TGI in experiment [1] was determined as 0.471 µM; in experiment [2], 0.937 µM; in experiment [3], 3.98 µM; in experiment [4] it was 2.07 µM; in [5], 6.35 µM; in experiment [6] it was 0.754 µM. Further, the TGI came out at 3.17 µM in experiment [7], 6.1 µM in experiment [8], 5.55 µM in experiment [9] and 0.707 µM in experiment [10].

`O=C(O)C[C@H](O)C[C@H](O)/C=C/c1c(C2CC2)nc2ccccc2c1-c1ccc(F)cc1`: the GI50 is 0.202 µM and 0.036 µM in [1]; 2.66 µM and 1.25 µM in experiment [2]; 23.1 µM and 5.16 µM in experiment [3]; 6.4 µM and 7.73 µM in experiment [4]; > 100 µM and 54.5 µM in [5]; 1.38 µM and 0.633 µM in experiment [6]. Besides, the GI50 in experiment [7] is 22.8 µM and 8.04 µM; in experiment [8], 52.6 µM and 7.32 µM; in experiment [9], 26.1 µM and 6.6 µM. Further, the TGI in experiment [1] was 0.908 µM and 0.226 µM; in [2] it was 12.5 µM and 5.31 µM; in [3] it was more than 100 µM; in experiment [4] it was more than 100 µM; in experiment [5], more than 100 µM; in experiment [7], more than 100 µM. In addition, the TGI in experiment [8], in experiment [9] and in [10] was more than 100 µM throughout.

Take `O=C(O)C(Cc1cnc[nH]1)N1C(=O)c2ccccc2C1=O` (stereo not given): the TGI in experiment [1], in experiment [2], in [3], in experiment [4], in experiment [5] and in [6] was more than 100 µM in each case. Further, the TGI in experiment [7], in experiment [8] and in [10] was more than 100 µM in each case.

For the compound `CNC(=O)NCC1OC(n2cnc3c(NC(=O)Nc4ccccc4)ncnc32)C(O[Si](C)(C)C(C)(C)C)C1O[Si](C)(C)C(C)(C)C` (stereo not given), the GI50 in [1] is 2.03 µM; in experiment [2] it was 2.7 µM; in experiment [3], 3.7 µM; in experiment [6], 2.39 µM; in experiment [7], 3.44 µM; in experiment [8], 5.24 µM. Further, the GI50 is 6.88 µM in experiment [9] and 4.29 µM in [10]. Besides, the TGI in experiment [1] came out at 4.96 µM; in experiment [2], 7.93 µM; in experiment [3], 30.6 µM; in [6], 7.14 µM; in experiment [7] it was 43.9 µM; in experiment [8], 25.2 µM. The TGI was more than 100 µM in experiment [9] and 72.6 µM in [10].

Take `Cc1ccc(S(=O)(=O)N/N=C(\c2nc3ccc(Cl)cc3[nH]c2=O)C(O)c2ccco2)cc1` (stereo not given): the TGI in experiment [1], in experiment [2], in experiment [3], in experiment [4], in experiment [5] and in [7] was more than 100 µM each time. The TGI in [8] and in experiment [10] was more than 100 µM in each case.

As to `C=CC(=O)N1C/C(=C\c2ccc(Cl)c(Cl)c2)C(=O)/C(=C/c2ccc(Cl)c(Cl)c2)C1`, the TGI in [1] is 1.89 µM; in [2], 1.17 µM; in experiment [4] it was 0.28 µM; in experiment [5], 0.38 µM; in experiment [6], 0.302 µM; in experiment [7], 0.122 µM. Besides, the TGI in [8] was 1.02 µM; in [9], 1.61 µM; in experiment [10], 2.57 µM.

The record behind these values is PubChem BioAssay (NCI).
